This note sets out measurements from US6723716B1, “7-acylamino-3-heteroarylthio-3-cephem carboxylic acid antibiotics and prodrugs thereof” (Essential Therapeutics, Inc., priority 1999, dated 2004).

In brackets after ≈: the same amount, converted by molar mass.

One data set concerns E. coli ATCC25992. Briefly: Broth microdilution MIC (NCCLS). The format is cell-based. Conditions: Escherichia coli. In a few lines:
(§1)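 Following NCCLS guidance, compounds were titrated 2-fold in Mueller-Hinton broth against 5×10^5 CFU/mL inocula. After 24 h at 35° C, growth was judged by absorbance at 650 nm and by eye. The MIC was taken as the lowest concentration that stopped growth.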
(In general: In broth dilution the organism is exposed to a series of concentrations in liquid medium.)

For the next data set, the system named is S. aureus ATCC 29213. Briefly: Broth microdilution MIC (NCCLS). The format is cell-based. The note with it: Staphylococcus aureus, ATCC29213, 24 h. In a few lines: (§2)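 Endpoint: lowest concentration preventing visible or OD650-detected growth. Conditions: Mueller-Hinton broth, serial 2-fold compound dilutions, 5×10^5 CFU/mL, 35° C for 24 h. Inoculum counts were checked by plating on TSA.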

In another data set the test system is E. faecium ATCC 35667. Briefly: Broth microdilution MIC (NCCLS). The note with it: Enterococcus faecium, ATCC35667. The data set is classed as cell-based. The method, boiled down: as §2
Another data set relates to P. aeruginosa ATCC 27853. The experiment in a line: Broth microdilution MIC (NCCLS). The format is cell-based. The note with it: Pseudomonas aeruginosa, ATCC27853. The method, boiled down:
as §1

Another data set concerns E. faecalis VanB (Van^R). The experiment in a line: Broth microdilution MIC (NCCLS). The format is cell-based. Conditions: Enterococcus faecalis. The method, boiled down:
as §2

In a further data set the test system is E. faecalis ATCC 29212. The experiment in a line: Broth microdilution MIC (NCCLS). The format is cell-based. Conditions: Enterococcus faecalis, ATCC29212. In a few lines: as §2
For data set [1], the system named is S. aureus PC1 (Meth^S)(lac^+). Briefly: Broth microdilution MIC (NCCLS). Conditions: Staphylococcus aureus. The data set is classed as cell-based. In a few lines: as §2
Data set [2] deals with S. aureus 76 (Meth^R)(lac^+). Briefly: Broth microdilution MIC (NCCLS). The data set is classed as cell-based. The note with it: Staphylococcus aureus. The method, boiled down: as §2
Data set [3] has as its system S. aureus Col (Meth^R)(lac^−). Briefly: Broth microdilution MIC (NCCLS). The data set is classed as cell-based. The note with it: Staphylococcus aureus. The method, boiled down: as §2
For data set [4], the system named is S. aureus Spain #356 (Meth^R). The experiment in a line: Broth microdilution MIC (NCCLS). The format is cell-based. Conditions: Staphylococcus aureus, 24 h. The method, boiled down: as §2
Data set [5] relates to S. aureus ATCC 13709 (Meth^S). Briefly: Broth microdilution MIC (NCCLS). The note with it: Staphylococcus aureus, ATCC13709. The format is cell-based. In a few lines: as §2
Data set [6] has as its system S. haemolyticus 05 (Meth^R). The experiment in a line: Broth microdilution MIC (NCCLS). The data set is classed as cell-based. Conditions: Staphylococcus haemolyticus. In a few lines:
as §2

For the next data set, the system named is E. faecium VanA (Van^R). Briefly: Broth microdilution MIC (NCCLS). The data set is classed as cell-based. The note with it: Enterococcus faecium. In a few lines: as §2
Data set [7] deals with S. aureus Col8A (Meth^S)(lac^−). Briefly: Broth microdilution MIC (NCCLS). The format is cell-based. Conditions: Staphylococcus aureus. The method, boiled down: as §2
The next data set concerns E. faecium A491 (Amp^R). The experiment in a line: Broth microdilution MIC (NCCLS). The data set is classed as cell-based. Conditions: Enterococcus faecium. The method, boiled down: as §2
The subject of data set [8] is S. aureus ATCC 33593 (Meth^R). The experiment in a line: Broth microdilution MIC (NCCLS). The format is cell-based. Conditions: Staphylococcus aureus, ATCC33593. In a few lines: as §2
A further data set has as its system human serum proteins. The experiment in a line: Serum binding determination by ultrafiltration/HPLC. The data set is classed as in vitro ADME. Conditions: by HPLC. The procedure: The more accurate measurement of binding of selected cephalosporin compounds was performed using HPLC as described below.
1. Serum is placed in a shaking water bath preheated to 37±2° C. for 5 to 10 minutes to heat serum to 37° C. Serum pH is measured and recorded, while serum is 37° C. using pH paper. Measurements are taken twice, 3 minutes apart. If the pH is not 7.4±0.4 then the pH is adjusted by blowing 5% CO2/95% O2 over the serum. After blowing for several minutes, serum is heated to 37° C. and measurements are taken twice, 3 minutes apart using pH paper to determine the pH. Store at 4° C. The serum is stable for 7 days. Always check the pH before each use.
2. Before any centrifugation, the centrifuge temperature must be adjusted to 25±2° C. Preheat the centrifuge by spinning for 45 minutes at the same speed to be used in the assay (1900 g) with two tubes of water in the rotor and the temperature set to 25° C. When the centrifuge stops immediately check the temperature of the tubes of water with a calibrated thermometer. The temperature of the tubes of water must be 25±2° C. […] Continue spinning and measuring the temperature and adjusting the setting until the temperature is 25±2° C.
3. Prepare blank ultrafiltrate by pipetting blank pH 7.4 serum into an Amicon Centrifree Micropartition devices, centrifuge: fixed angle rotor, 1900 g, 25° C. for 20 minutes. Heat ultrafiltrate in a shaking water bath preheated to 37° C. Measure ultrafiltrate pH and adjust to the pH of the serum (7.4±0.2).
4. Pipette 190 ul of blank ultrafiltrate into a set of labeled 1.7 mL polypropylene microfuge tubes for 3 of each level. Pipette 10 μL of the appropriate standard stock 50, 200, 1000 μg/mL to make standards 2.5, 10, and 50 μg/mL respectively. Vortex each tube well. One set of the standard samples are mixed 1:1 with 0.2 M acetic acid and injected onto the HPLC (MSTD). These samples are the membrane standards and will be used to compare to the other standards. Pipette 190 ul of ultrafiltrate and spike with 10 ul of whatever solution (e.g. water) the standards are prepared in to make the zero standard.
5. Pipette 475 μL of blank heated pH 7.4 serum into a set of labeled 1.7 mL polypropylene microfuge tubes for 2 of each (Serum A and Serum B). Pipette 25 μL of the 1000 μg/mL standard stock into each tube, vortex each tube well to make serum standard 50 μg/mL. Remove 100 μL of serum and deproteinate with 200 μL 4% TCA while vortexing to make serum time 0 (serum 50, T0). Place serum tubes in a shaking water bath at 37° C. for 10 minutes. Pipet 100 μL of serum out and deproteinate with 200 μL 4% TCA, to make serum time 10 min (serum 50, T10). Pipet 200 ul serum standard 50 μg/mL into an ultrafiltration device, which is not treated with TCA, to determine free drug in samples (Rat Serum 50).
6. Transfer serum and standard samples to labeled Amicon Centrifree Micropartition filters, and centrifuge: 1900 g, 25° C. for 10 minutes. The extracted serum samples (T0 and T10) are spun down and supernatant is loaded into HPLC vials.
7. 100 μL of ultrafiltrate sample and 100 μL of 0.2 M acetic acid were mixed together to stabilize the compound in ultrafiltrate.
8. Transfer entire stabilized ultrafiltrate solution to a labeled autoinjector HPLC vial cap with Teflon septa, and inject on HPLC.
Peak height or area is used in a weighted linear regression.

One may read the MIC as the smallest concentration in the dilution series that meets the test's criterion for growth inhibition. A low value points to a more susceptible organism. For `NCCSCc1nc(Cl)sc1SC1=C(C(=O)O)N2C(=O)[C@@H](NC(=O)/C(=N\O)c3cccc(N)n3)[C@H]2SC1` [Cmpd 29, (7R)-7-[(Z)-2-(2-aminopyrid-6-yl)-2-(hydroxyimino)acetamido]-3-[2-chloro-4-(2-aminoethylthiomethyl)-1,3-thiazol-5-ylthio]-3-cephem-4-carboxylic acid], the MIC in the data set on E. coli ATCC25992 was 16 µg/mL (≈ 26.6 µM); in the data set on S. aureus ATCC 29213 it was 0.125 µg/mL (≈ 0.208 µM); in the data set with E. faecium ATCC 35667, 2 µg/mL (≈ 3.32 µM); in the data set with P. aeruginosa ATCC 27853 it was over 32 µg/mL; against E. faecalis VanB (Van^R) it was 0.5 µg/mL (≈ 0.83 µM); in the data set on E. faecalis ATCC 29212, 0.25 µg/mL (≈ 0.415 µM). The MIC in [1] was 0.25 µg/mL (≈ 0.415 µM); in data set [2], 1 µg/mL (≈ 1.66 µM); in [3], 1 µg/mL (≈ 1.66 µM); in [4] it was 2 µg/mL (≈ 3.32 µM); in data set [5], 0.125 µg/mL (≈ 0.208 µM); in data set [6] it was 2 µg/mL (≈ 3.32 µM). For the same compound, the MIC against E. faecium VanA (Van^R) is 4 µg/mL (≈ 6.64 µM); in data set [7] it was 0.125 µg/mL (≈ 0.208 µM); against E. faecium A491 (Amp^R) it was over 32 µg/mL; in data set [8], 1 µg/mL (≈ 1.66 µM). Besides, the “Serum Binding human (% of compound bound to serum)” value with human serum proteins is 97%.
